Measured values from article PMC6488665 (2019).

Tested on: kdp c-di-AMP riboswitch transcript (5'-UTR of kdpFABC, run-off from -88 to +363 template) (RNA, riboswitch) AUAAAUCAUUCAUAAAAUUUCCAAAAAAACCUAAAAUCGCUGAGUUCCAGAAAUGGAGCGGGGGAACCAAUUUUGUGCAUCGUCACUUGGGGUGAAUCUUUCAGUUUUGAAAGUAGGGCUACUCUUUAGGCCCGAAUCCGACAGCUAACCUCGUAAGCGUUUAGAGAGGAGGUUUACUUUUUGUUGUUCAUUUUUUGAACACUGAGUAGAGCUCAGUGUUCUUUUUUAAUAUUUAAAUGGUAAAUUUUAACAAAAAAGAGGGGAUAGUUAUGUUAGAUGUUGUAAUGGUCGGGAUUUUUAUUUUAUUAGUUGCAUCGAUGGCAAGUCUUGCAAGUUGGUCAGAUAAAGUUGUGAAAGAAGGA
Test: in vitro transcription termination (E. coli RNA polymerase), gel
Settings: 150 mM KCl, 10 mM MgCl2; 40 mM Tris-HCl pH 7.5, 37 °C; c-di-AMP 0-5 µM; termination rises 27% to 63%; functional, no constant

binding: yes
Structure (SMILES): Nc1ncnc2c1ncn2[C@@H]1O[C@@H]2COP(=O)(O)O[C@H]3[C@@H](O)[C@H](n4cnc5c(N)ncnc54)O[C@@H]3COP(=O)(O)O[C@H]2[C@H]1O
